≈ marks a conversion by molar mass, not a printed value.
How the values were obtained:
neutrophils = experiment: Inhibition of oxidative burst from neutrophils (fMLP-induced superoxide release); assay type: cell-based; conditions: Neutrophil, reduction of superoxide formation, fMLP 0.2 μM, 0 to 100 μM compound; read-out: ED50 Respiratory Burst
Protocol: During inflammation, neutrophils produce and release superoxide ions, otherwise known as oxidative burst response, causing cytotoxicity. […] The superoxide release assay is based on published protocols (Goldstein et al. (1975). J. Clin. Invest. 56(5): 1155-63). Briefly, cells were pre-incubated for 10 min at 37° C. with a mixture of cytochrome c (75 μM final concentration), cytochalasin B (5 μg/ml) with or without superoxide dismutase (SOD) (10 μg/ml) and with or without AFC, AFC-Calcium complex, and AFC-Strontium complex (ranging from 0 to 100 μM). To initiate O2^− release, fMLP (0.2 μM) was added the cells are incubated for 10 min at 37° C. Samples were then placed on ice for 5 min and subsequently centrifuged at 3,000 rpm at 4° C. The supernatant was then analyzed by spectrophotometric measurement at 550 and 556.5 nm. The ED50 values for the reduction of superoxide formation, obtained with AFC, AFC-Calcium complex, and AFC-Strontium complex are depicted in Table 2.

[1] = system: Propionibacterium acnes (strain ATCC 6919); experiment: Inhibition of Propionibacterium acnes growth; assay type: cell-based; conditions: Cutibacterium acnes, ATCC6919, 72 h, 72 hours, anaerobic, absorbance 600 nm, 1×10^6 CFU per mL; read-out: IC50 (inhibition of P. acnes growth)
Protocol: The assay for the inhibition of growth of Propionibacterium acnes bacteria is described elsewhere (Nakatsuji et al., J Invest Dermatol, 2009, 129: 2480-2488). In brief, the strain ATCC 6919 of P. acnes (American Type Culture Collection, Manassas, Va.) was cultured on Brucella agar (R01254, Remel, Lenexa, Kans.) supplemented with 5% (v/v) defibrinated sheep blood, vitamin K (5 mg/ml, Remel, Lenexa, Kans.), and hemin (50 mg/ml, Remel, Lenexa, Kans.), under an anaerobic condition using Gas-Pak (BD, Sparks, Md.) at 37° C. A single colony was inoculated in Reinforced Clostridium Medium (Oxford, Hampshire, England) and cultured at 37° C. under the anaerobic condition. Each of the inventive complexes—AFC-Sr, AFC-Ag and AFC-Zn as well as AFC were dissolved in 100% (v/v) DMSO. Samples of each inventive complex, AFC and a solution of benzoyl peroxide (“BPO”) were then each incubated with an inoculum of P. acnes at a concentration of 1×10^6 CFU per mL in Reinforced Clostridium Medium in a 96-well microplate (100 μL per well) under anaerobic conditions for 72 hours. Samples of each were tested at final concentrations per well of 0.25 μg/mL, 0.5 μg/mL, 1.0 μg/mL, 1.95 μg/mL, 3.9 μg/mL, 7.8 μg/mL, 15.625 μg/mL, 31.25 μg/mL, 62.5 μg/mL, 125 μg/mL, 250μg/mL, and 500 μg/mL. A control well received only 5% (v /v) of DMSO in place of a sample of an inventive complex. After 72 hours incubation under anaerobic conditions, the P. acnes cultures in the 96-well microplate were mixed well and then absorbance readings at 600 nm were taken to determine bacterial growth. […] Growth curves of P. acnes determined for BPO, AFC, AFC-Sr, AFC-Ag and AFC-Zn are depicted in FIG. 3.

[2] = system: MPO activity (neutrophil infiltration) in P. acnes-injected ear; experiment: P. acnes-induced mouse ear model of inflammation - MPO endpoint; assay type: in vivo; conditions: dose of 0.4 mg/20 μL
Protocol: The methods for a model of P. acnes-inflammation are described elsewhere (Nakatsuji et al., J Invest Dermatol, 2008, 128: 2451-2457).
The protocol for inducing inflammation using P. acnes bacterial challenge on the mouse ear was slightly modified from the method described previously (Natatsuji et al., 2008). Briefly, Swiss Webster (ICR, 6-8 weeks old) mouse ears were injected with living P. acnes culture intradermally. An amount of 20 μl aliquots of living P. acnes (ATCC 6919, 3×10^6 CFU) suspended in PBS was intradermally injected in the central portion of the ear. As a control, 20 μl of PBS was injected into control animals.
To assay for inhibition of dermal neutrophil infiltration by AFC complexes, a standard method was used (see Bradley et al., J Invest Dermatol, 1982,78: 206-209; Young et al., J Invest Dermatol, 1983, 80: 48-52; De Young et al, Agents Actions, 1989, 26: 335-41; and Rao et al., Inflammation, 1993, 17: 723-41). Briefly, 6mm biopsy punches taken from both compound-treated ears as well as non-treated control ears were homogenized in 400 μl of 0.5% hexadecyltrimethylammonium bromide in 50 mM potassium phosphate buffer (pH 6.0) using the Fast Prep 24 (MP Biomedicals, Solon, Ohio). Supernatants were assayed for MPO activity using a model EL 340 96-well plate reader (BioTek Instruments, Winooski, Vt.). The percent inhibition of neutrophil infiltration by each AFC complex was determined by comparing the average MPO levels in the presence and absence of these compounds. The percent inhibition of MPO was determined by taking the average MPO activity of compound-treated ears and dividing it by the average MPO activity of 12 ears that only received the P. acnes challenge and subtracting that value from 100%. These values were corrected for the MPO activity of normal, non P. acnes-treated mouse ears of littermate controls. Summary of MPO activity ranges determined from an MPO activity assay for dexamethasone (administered at a dose of 1.6 mg/20 μL), clobetasol (administered at a dose of 0.1 mg/20 μL), salicylic acid (administered at a dose of 0.4 mg/20 μL), AFC (administered at a dose of 0.4 mg/20 μL), AFC-Strontium complex (administered at a dose of 0.4 mg/20 μL) and SFC-disodium are presented in Table 4. “+” indicates a range of 0-20%, “++” indicates a range of 20-40%, and “+++” indicates >40% inhibition.

[3] = system: mouse skin reepithelialization; experiment: Mouse wound healing model - skin reepithelialization; assay type: in vivo
Excerpt: The healing of wounded skin is mediated by epidermal reepithelialization that requires keratinocyte migration. Glucocorticoids are known to inhibit wound healing (Ehrlich et al., Proc Soc Exp Biol Med, 1971, 137: 936-938; Leibovich et al., Am J Pathol, 1975, 78, 71-100). […] The methods for studying mouse skin reepithelialization using both partial and full thickness mouse wound healing models have been described elsewhere (Kim et al. Wound Repair Regen, 2001, 9: 386-390). In brief, for partial thickness wounds, a 3 mm-diameter circle of epidermis is removed from the ventral auricle. The resulting wound is cleansed and dressed with an occlusive polyurethane film. The mouse ears are excised on days 3, 5, 8, and 11 post-operation and fixed in 10% buffered formalin. Following day 8 post-operation, sampling of treated mice is performed to determine completion of healing. For full thickness wounds, mice heads are shaved and depilated prior to excising the skin. The cleaned and dressed wounds are harvested and fixed at days 3, 5, 8 and 10 and fixed in 10% buffered formalin.

CC(=O)N[C@@H](CSC/C=C(\C)CC/C=C(\C)CCC=C(C)C)C(=O)O [AFC, N-acetyl-S-farnesyl-L-cysteine, reference compound]
EC50 (neutrophils): 43.3 µM
IC50 [1]: 12.9 mg/L (≈ 35.1 µM)
MPO % Inhibition [2]: +++ (“+++” indicates >40% inhibition)
effect on mouse skin reepithelialization of wounds [3]: no effects
